Source: patent publication US7388105B2, “Compounds and use to reduce the formation of malodour” (Givaudan S.A., priority 2005, dated 2008)
Like-named read-outs stand apart in the source and are kept apart here.

Molecular target: alpha-N-acyl-glutamine-aminoacylase (Corynebacterium striatum, UniProt Q8GGD4)
Experiment: Competitive substrates of alpha-N-acyl-glutamine-aminoacylase: reduction of acid release
Type: biochemical
Details: for inhibition at 50 µM: tested compound 0.05 mM; for inhibition at 50 µM / inhibition at 100 µM / inhibition at 200 µM / inhibition at 400 µM: 15 min; for inhibition at 100 µM: tested compound 0.1 mM; for inhibition at 200 µM: tested compound 0.2 mM; for inhibition at 400 µM: tested compound 0.4 mM
Protocol: In a sample, the enzyme alpha-N-acyl-glutamine-aminoacylase was used at a concentration of 36 ng/ml in Buffer A (50 mM NaCl; 50 mM NaH2PO4/K2HPO4; pH 7). To each sample, alpha-N-decanoyl-glutamine or alpha-N-(E)-3-methyl-2-hexenoyl-glutamine was added at a final concentration of 0.2 mM as a substrate.
Further, to each sample various competitive substrates are added as shown in Table 1 below at different concentrations as indicated.
The resulting samples with enzyme, substrate and competitive substrate were incubated for 15 minutes, acidified to pH 2 with HCl and extracted with methyl tert butyl ether (MTBE). […] The percentage of the reduction of the release when compared to the positive control is given in Table 1 (equals inhibition of the enzmye).

[1] = substrate alpha-N-decanoyl-glutamine 0.2 mM, release of decanoic acid vs positive control, read-out: % Inhibition (DA)
[2] = substrate alpha-N-(E)-3-methyl-2-hexenoyl-glutamine 0.2 mM, release of (E)-3-methyl-2-hexenoic acid vs positive control, read-out: % Inhibition (MH)

alpha-N-acyl-glutamine-aminoacylase, sequence (Q8GGD4 whole entry): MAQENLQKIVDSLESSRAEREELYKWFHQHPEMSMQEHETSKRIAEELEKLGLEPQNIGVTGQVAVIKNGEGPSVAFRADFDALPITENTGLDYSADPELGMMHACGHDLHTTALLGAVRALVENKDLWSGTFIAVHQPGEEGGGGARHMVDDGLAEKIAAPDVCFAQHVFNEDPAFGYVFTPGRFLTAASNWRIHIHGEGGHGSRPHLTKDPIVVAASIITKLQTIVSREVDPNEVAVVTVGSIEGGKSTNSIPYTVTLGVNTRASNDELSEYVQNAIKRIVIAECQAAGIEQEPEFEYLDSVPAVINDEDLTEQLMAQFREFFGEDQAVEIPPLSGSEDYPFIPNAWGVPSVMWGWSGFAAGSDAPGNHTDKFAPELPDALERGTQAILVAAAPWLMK

SMILES	Inhibition of Nα-acyl-glutamine-aminoacylase (in words) (summary of Table 1)	inhibition at 50 µM [1] [%]	inhibition at 100 µM [2] [%]	inhibition at 100 µM [1] [%]	inhibition at 200 µM [2] [%]	inhibition at 200 µM [1] [%]	inhibition at 400 µM [2] [%]
CC(CCOC(=O)NC(CCC(N)=O)C(=O)O)CCc1ccccc1 [Compound 1, alpha-N-(3-Methyl-5-phenylpentanyloxycarbonyl)-L-glutamine]	particularly good inhibitor	38.3	35.5	57	58.1	64.4	78.3
C=CCCCCCCCCC(=O)NC(CCC(N)=O)C(=O)O [Compound 2, alpha-N-(10-undecenoyl)-L-glutamine]	–	0.9	0	2.2	2.1	15.6	24.2
CC1CCC(C(C)C)C(OC(=O)NC(CCC(N)=O)C(=O)O)C1 [Compound 3, alpha-N-(2-isopropyl-5-methylcyclohexanyloxycarbonyl)-L-glutamine]	–	–	7.4	19.3	16.5	27.2	33.9
CC(C)=CCCC(C)CCOC(=O)NC(CCC(N)=O)C(=O)O [Compound 4, alpha-N-(3,7-dimethyl-oct-6-enyloxycarbonyl)-L-glutamine]	–	15.9	-0.3	13.8	17.1	34.6	16.1
CCCCOC(=O)N[C@@H](CCC(N)=O)C(=O)O [Compound 5, alpha-N-Butyloxycarbonyl-L-glutamine]	–	6.7	1.1	6.8	0	10.4	0
CC(C)(C)C1CCC(OC(=O)N[C@@H](CCC(N)=O)C(=O)O)CC1 (stereo partly drawn) [Compound 6, alpha-N-(4-tert-Butylcyclohexyloxycarbonyl)-L-glutamine]	–	11.3	4.9	14.3	14.8	21.2	28.5
